The target of one experiment is T1, human GLP1R (Homo sapiens, UniProt P43220).
T1 construct: expressed in transfected cells; kept under Blasticidin and Hygromycin selection
As to the kind of experiment: cAMP activity assay, cells expressing human GLP1R. The experiment is classed as cell-based. The note with it: cAMP production, assay buffer with or without 20% human serum (not stated which). In short, it runs like this: (§1)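 cAMP production in human GLP1R- or GCGR-expressing cells was read by luminescence after overnight dark incubation at room temperature. Peptides were given as 10-point DMSO dilution series, with native GLP-1 and glucagon as references. Four-parameter logistic fitting gave EC50.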

The next experiment addresses T2, human GCGR (Homo sapiens, UniProt P47871).
T2 construct: expressed in transfected cells; kept under Blasticidin and Hygromycin selection
As to the kind of experiment: cAMP activity assay, cells expressing human GCGR. The following applies: for EC50: cAMP production, cells expressing human GCGR, assay buffer with or without 20% human serum (not stated which), read-out: GCGR EC50 human; for hGCGR/hGLP1R (hTone): ratio of human GCGR EC50 to human GLP1R EC50. In kind it is cell-based. In a few lines:
as §1

Starred links: 1 amine or outer side, 2 acyl side, 3 side chain; linkers in the order of their positions; H or OH if unused. Non-standard residues stand in square brackets, D forms with d. Residues, ends and D or L forms follow the SMILES beside them. Groups on a side chain read outwards from the residue. *: point of attachment. C20 diacid = O=C(O)CCCCCCCCCCCCCCCCCCC(=O)*; C19 diacid = O=C(O)CCCCCCCCCCCCCCCCCC(=O)*; C17 diacid = O=C(O)CCCCCCCCCCCCCCCC(=O)*; γGlu = O=C(O)[C@H](CCC(=O)[*:2])N[*:1]; Met(O2) = CS(=O)(=O)CC[C@H](N)C(=O)O; AEEA = NCCOCCOCC(=O)O; Aib = CC(C)(N)C(=O)O

T2 sequence (P47871 26-477): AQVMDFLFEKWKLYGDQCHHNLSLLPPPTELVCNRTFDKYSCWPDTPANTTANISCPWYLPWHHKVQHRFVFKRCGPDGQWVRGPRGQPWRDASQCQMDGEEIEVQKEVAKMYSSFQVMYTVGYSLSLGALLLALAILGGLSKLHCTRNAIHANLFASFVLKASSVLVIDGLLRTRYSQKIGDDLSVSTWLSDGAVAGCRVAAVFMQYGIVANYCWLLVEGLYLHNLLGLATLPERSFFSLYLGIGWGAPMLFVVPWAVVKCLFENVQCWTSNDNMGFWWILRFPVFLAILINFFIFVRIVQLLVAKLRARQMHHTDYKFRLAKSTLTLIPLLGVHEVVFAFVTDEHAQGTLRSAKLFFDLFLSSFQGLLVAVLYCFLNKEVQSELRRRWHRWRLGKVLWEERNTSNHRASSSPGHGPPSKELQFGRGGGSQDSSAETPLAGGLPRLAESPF
T1 sequence (P43220 24-463): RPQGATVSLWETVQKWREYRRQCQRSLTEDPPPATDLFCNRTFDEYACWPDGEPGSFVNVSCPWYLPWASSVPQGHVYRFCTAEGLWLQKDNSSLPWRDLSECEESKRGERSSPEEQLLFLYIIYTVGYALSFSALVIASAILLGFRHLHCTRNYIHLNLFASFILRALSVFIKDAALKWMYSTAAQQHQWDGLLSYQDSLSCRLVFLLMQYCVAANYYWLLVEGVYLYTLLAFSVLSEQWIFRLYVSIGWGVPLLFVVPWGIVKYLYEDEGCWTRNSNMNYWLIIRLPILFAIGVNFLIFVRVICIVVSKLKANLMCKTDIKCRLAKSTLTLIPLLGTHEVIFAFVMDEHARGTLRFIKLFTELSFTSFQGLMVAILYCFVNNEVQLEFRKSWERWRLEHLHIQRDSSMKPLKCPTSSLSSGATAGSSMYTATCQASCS

In turn, `CC(C)C[C@H](NC(=O)[C@H](Cc1ccc(O)cc1)NC(=O)[C@H](CCCCN)NC(=O)[C@H](CO)NC(=O)[C@H](Cc1ccc(O)cc1)NC(=O)[C@H](CC(=O)O)NC(=O)[C@H](CO)NC(=O)[C@@H](NC(=O)[C@H](Cc1ccccc1)NC(=O)[C@@H](NC(=O)CNC(=O)[C@H](CCC(N)=O)NC(=O)C(C)(C)NC(=O)[C@@H](N)Cc1c[nH]cn1)[C@@H](C)O)[C@@H](C)O)C(=O)N[C@@H](CC(=O)O)C(=O)N[C@@H](C)C(=O)N[C@@H](CCCNC(=N)N)C(=O)N[C@@H](C)C(=O)N[C@@H](C)C(=O)N[C@@H](CCCCNC(=O)COCCOCCNC(=O)COCCOCCNC(=O)CC[C@H](NC(=O)CCCCCCCCCCCCCCCCCCC(=O)O)C(=O)O)C(=O)N[C@@H](CC(=O)O)C(=O)N[C@@H](Cc1ccccc1)C(=O)N[C@H](C(=O)N[C@@H](CCC(N)=O)C(=O)N[C@@H](Cc1c[nH]c2ccccc12)C(=O)N[C@@H](CC(C)C)C(=O)N[C@@H](CCS(C)(=O)=O)C(=O)N[C@@H](CC(=O)O)C(=O)N[C@H](C(N)=O)[C@@H](C)O)C(C)C` [compound 43] (H-H[Aib]QGTFTSDYSKYLDARAAK([AEEA-AEEA-γGlu-C20 diacid])DFVQWL[Met(O2)]DT-NH2; N-terminus assumed) showed an EC50 at human GLP1R of 690 pM. Also, on human GCGR, the EC50 was found to be 920 pM and the “hGCGR/hGLP1R (hTone)” value was found to be 1.3.
For `CC(C)C[C@H](NC(=O)[C@H](Cc1ccc(O)cc1)NC(=O)[C@H](CCCCN)NC(=O)[C@H](CO)NC(=O)[C@H](Cc1ccc(O)cc1)NC(=O)[C@H](CC(=O)O)NC(=O)[C@H](CO)NC(=O)[C@@H](NC(=O)[C@H](Cc1ccccc1)NC(=O)[C@@H](NC(=O)CNC(=O)[C@H](CCC(N)=O)NC(=O)C(C)(C)NC(=O)[C@@H](N)Cc1c[nH]cn1)[C@@H](C)O)[C@@H](C)O)C(=O)N[C@@H](CC(=O)O)C(=O)N[C@@H](C)C(=O)N[C@@H](CCCNC(=N)N)C(=O)N[C@@H](C)C(=O)N[C@@H](C)C(=O)N[C@@H](CCC(N)=O)C(=O)N[C@@H](CCCCNC(=O)COCCOCCNC(=O)COCCOCCNC(=O)CC[C@H](NC(=O)CCCCCCCCCCCCCCCCCCC(=O)O)C(=O)O)C(=O)N[C@@H](Cc1ccccc1)C(=O)N[C@H](C(=O)N[C@@H](CCC(N)=O)C(=O)N[C@@H](Cc1c[nH]c2ccccc12)C(=O)N[C@@H](CC(C)C)C(=O)N[C@@H](CCS(C)(=O)=O)C(=O)N[C@@H](CC(=O)O)C(=O)N[C@H](C(N)=O)[C@@H](C)O)C(C)C` [compound 44] (H-H[Aib]QGTFTSDYSKYLDARAAQK([AEEA-AEEA-γGlu-C20 diacid])FVQWL[Met(O2)]DT-NH2; N-terminus assumed), on human GLP1R, the EC50 was 240 pM. Moreover, at human GCGR, the EC50 is 220 pM and the “hGCGR/hGLP1R (hTone)” value worked out at 0.92.
On to `CC(C)C[C@H](NC(=O)[C@H](Cc1ccc(O)cc1)NC(=O)[C@H](CCCCN)NC(=O)[C@H](CO)NC(=O)[C@H](Cc1ccc(O)cc1)NC(=O)[C@H](CC(=O)O)NC(=O)[C@H](CO)NC(=O)[C@@H](NC(=O)[C@H](Cc1ccccc1)NC(=O)[C@@H](NC(=O)CNC(=O)[C@H](CCC(N)=O)NC(=O)C(C)(C)NC(=O)[C@@H](N)Cc1c[nH]cn1)[C@@H](C)O)[C@@H](C)O)C(=O)N[C@@H](CC(=O)O)C(=O)N[C@@H](C)C(=O)N[C@@H](CCCNC(=N)N)C(=O)N[C@@H](C)C(=O)N[C@@H](C)C(=O)N[C@@H](CCCCNC(=O)COCCOCCNC(=O)COCCOCCNC(=O)CC[C@H](NC(=O)CCCCCCCCCCCCCCCCCC(=O)O)C(=O)O)C(=O)N[C@@H](CC(=O)O)C(=O)N[C@@H](Cc1ccccc1)C(=O)N[C@H](C(=O)N[C@@H](CCC(N)=O)C(=O)N[C@@H](Cc1c[nH]c2ccccc12)C(=O)N[C@@H](CC(C)C)C(=O)N[C@@H](CCS(C)(=O)=O)C(=O)N[C@@H](CC(=O)O)C(=O)N[C@H](C(N)=O)[C@@H](C)O)C(C)C` [compound 45] (H-H[Aib]QGTFTSDYSKYLDARAAK([AEEA-AEEA-γGlu-C19 diacid])DFVQWL[Met(O2)]DT-NH2), for which the EC50 on human GLP1R was determined as 120 pM. Besides, at human GCGR, the EC50 came to 160 pM and the “hGCGR/hGLP1R (hTone)” value is 1.30.
In the same order, the values of `CC(C)C[C@H](NC(=O)[C@H](Cc1ccc(O)cc1)NC(=O)[C@H](CCCCN)NC(=O)[C@H](CO)NC(=O)[C@H](Cc1ccc(O)cc1)NC(=O)[C@H](CC(=O)O)NC(=O)[C@H](CO)NC(=O)[C@@H](NC(=O)[C@H](Cc1ccccc1)NC(=O)[C@@H](NC(=O)CNC(=O)[C@H](CCC(N)=O)NC(=O)C(C)(C)NC(=O)[C@@H](N)Cc1c[nH]cn1)[C@@H](C)O)[C@@H](C)O)C(=O)N[C@@H](CC(=O)O)C(=O)N[C@@H](C)C(=O)N[C@@H](CCCNC(=N)N)C(=O)N[C@@H](C)C(=O)N[C@@H](C)C(=O)N[C@@H](CCC(N)=O)C(=O)N[C@@H](CCCCNC(=O)COCCOCCNC(=O)COCCOCCNC(=O)CC[C@H](NC(=O)CCCCCCCCCCCCCCCCCC(=O)O)C(=O)O)C(=O)N[C@@H](Cc1ccccc1)C(=O)N[C@H](C(=O)N[C@@H](CCC(N)=O)C(=O)N[C@@H](Cc1c[nH]c2ccccc12)C(=O)N[C@@H](CC(C)C)C(=O)N[C@@H](CCS(C)(=O)=O)C(=O)N[C@@H](CC(=O)O)C(=O)N[C@H](C(N)=O)[C@@H](C)O)C(C)C` [compound 46] (H-H[Aib]QGTFTSDYSKYLDARAAQK([AEEA-AEEA-γGlu-C19 diacid])FVQWL[Met(O2)]DT-NH2; N-terminus assumed) are 280 pM, 500 pM and 1.83.
In the same order, the values of `CC(C)C[C@H](NC(=O)[C@H](Cc1ccc(O)cc1)NC(=O)[C@H](CCCCN)NC(=O)[C@H](CO)NC(=O)[C@H](Cc1ccc(O)cc1)NC(=O)[C@H](CC(=O)O)NC(=O)[C@H](CO)NC(=O)[C@@H](NC(=O)[C@H](Cc1ccccc1)NC(=O)[C@@H](NC(=O)CNC(=O)[C@H](CCC(N)=O)NC(=O)C(C)(C)NC(=O)[C@@H](N)Cc1c[nH]cn1)[C@@H](C)O)[C@@H](C)O)C(=O)N[C@@H](CC(=O)O)C(=O)N[C@@H](C)C(=O)N[C@@H](CCCNC(=N)N)C(=O)N[C@@H](C)C(=O)N[C@@H](C)C(=O)N[C@@H](CCC(N)=O)C(=O)N[C@@H](CCCCNC(=O)COCCOCCNC(=O)COCCOCCNC(=O)CC[C@H](NC(=O)CCCCCCCCCCCCCCCC(=O)O)C(=O)O)C(=O)N[C@@H](Cc1ccccc1)C(=O)N[C@H](C(=O)N[C@@H](CCC(N)=O)C(=O)N[C@@H](Cc1c[nH]c2ccccc12)C(=O)N[C@@H](CC(C)C)C(=O)N[C@@H](CCS(C)(=O)=O)C(=O)N[C@@H](CC(=O)O)C(=O)N[C@H](C(N)=O)[C@@H](C)O)C(C)C` [compound 48] (H-H[Aib]QGTFTSDYSKYLDARAAQK([AEEA-AEEA-γGlu-C17 diacid])FVQWL[Met(O2)]DT-NH2) are 50 pM, 50 pM and 1.10.
